Data: article PMC11767661 (Molecules, 2025)
“Also recorded” adds a separate entry of the source. Each block holds one compound with its values, some of them ahead of it.

Key:
[1] = complex of copper(II) with the buffer; cited from earlier work
Description: Shifting in fragmentation sites could be related to structural alterations induced by the N-protection. It is commonly accepted that the N-capping ...

[2] = 50 mM Hepes buffer at pH 7.4, peptide alone; settings: 4 °C, up to 14 days
[3] = 50 mM HEPES buffer at pH 7.4 with 25 µM zinc(II) chloride; settings: 4 °C, up to 14 days
[4] = 50 mM HEPES buffer at pH 7.4 with 25 µM copper(II) nitrate; settings: 4 °C, up to 14 days
[5] = Peptide hydrolysis in Hepes buffer alone or with Cu2+/Zn2+, followed by HPLC-ESI/MS; format: physicochemical; settings: 50 mM HEPES pH 7.4, 4 °C, LC-MS relative % area
Experimental: Herein, we analyzed the hydrolytic process of Aβ peptides in 50 mM Hepes buffer at 7.4 physiological pH over two weeks at two distinct temperatures, 4 °C and 37 °C, using mass spectrometry coupled with high-performance liquid chromatography (HPLC-MS) for precise analysis. Additionally, we explored the impact of copper(II) or zinc(II) ions, each added in a 1:1 molar ratio to the peptides, on the resulting hydrolytic fragmentation patterns. It is worth noting that metal binding only occurs at the N-terminal region of Aβ peptides, specifically interacting with histidine residues. The commonly accepted peptide sequence 1–16 (^1[…]^16, Aβ16) is widely used as a model for this interaction due to its inclusion of all three histidines (His6, His13, and His14) known for their key roles in coordinating metal ions. Therefore, the initial studies were performed on this short peptide.
General. All chemicals were of reagent grade and purchased from Sigma-Aldrich. Preparative HPLC was carried out with a Shimadzu LC-20AD Prominence instrument equipped with a diode array detector. Mass spectra and LCMS/MS data were performed with an LCQ ADV MAX ion-trap mass spectrometer equipped with an ESI ion source. The instrument was run in an automated LC-MS/MS mode and using a surveyor HPLC system (Thermo Finnigan, San Jose, CA, USA) equipped with a Phenomenex Jupiter 4u Proteo column (4 μm, 150 × 2.0 mm). For the analysis of peptide fragments, Bioworks 3.1 and Xcalibur 2.0.7 SP1 software were used (Thermo Finnigan, San Jose, CA, USA).
Peptide hydrolysis in the presence of metal ions. Solutions of Aβ16 and Aβ28 (500 µM) alone or with the addition of Cu(NO3)2 (1 eqv., 500 µM) or ZnCl2 (1 eqv., 500 µM) were prepared in 50 mM Hepes buffer at pH 7.4. The solutions were then incubated at 4 °C or 37 °C (only for Aβ16) in atmospheric air and every 7 days aliquots were taken, diluted to the 25 µM final concentration with Hepes buffer, and analyzed by HPLC-ESI/MS. The solution of R1τ, Ac-R1τ, αSyn15, and Ac-αSyn15 (25 µM) fragments were incubated in 50 mM Hepes buffer at 4 °C for 14 days; at the same time, solutions also containing copper(II) or zinc(II) in a 1:1 molar ratio respect to peptide were prepared. The elution was performed by using 0.1% HCOOH in distilled water (solvent A) and 0.1% HCOOH in acetonitrile (solvent B), with a flow rate of 0.2 mL/min. Elution started with 98% solvent A for 5 min, followed by a linear gradient from 98 to 55% A in 55 min. […] For the analysis of peptide fragments, Bioworks 3.1 and Xcalibur 2.0.7 SP1 software were used (Thermo Finnigan, San Jose, CA, USA).

[6] = Aβ28 500 µM + 500 µM copper(II) nitrate, 14 days
[7] = Aβ28 500 µM + 500 µM copper(II) nitrate, 21 days
[8] = Aβ28 500 µM + 500 µM zinc(II) chloride, 14 days
[9] = Aβ28 500 µM + 500 µM zinc(II) chloride, 21 days

Compound: O=S(=O)(O)CCN1CCN(CCO)CC1 [Hepes]
Copper(II) complex formation constant (log K) [1]: 3

cleaved bond [3]: L8-S9, 14 days
cleaved bond [4]: L8-S9, 14 days
Compound: Ac-^1MDVFMKGLSKAKEGV^15-NH2
cleaved bond [2]: K6-G7, 14 days; also recorded: K10-A11, 14 days; also recorded: L8-S9, 14 days

Compound: Ac-^256VKSKIGSTENLKHQPGGG^273-NH2
cleaved bond [2]: K259-I260, 14 days; also recorded: G261-S262, 14 days; also recorded: I260-G261, 14 days; also recorded: E264-N265, 14 days; also recorded: S258-K259, 14 days; also recorded: Q269-P270, 14 days; also recorded: K267-H268, 14 days; also recorded: L266-K267, 14 days
cleaved bond [3]: G261-S262, 14 days; also recorded: N265-L266, 14 days; also recorded: E264-N265, 14 days; also recorded: K267-H268, 14 days
cleaved bond [4]: G261-S262, 14 days; also recorded: N265-L266, 14 days; also recorded: E264-N265, 14 days

Compound: DAEFRHDSGYEVHHQKLV.F [hydrolytic fragment 1-18 of Aβ28]
Remaining amount of Aβ28 and species detected by LC-MS (Table S2) [5, 6]: 4%
Remaining amount of Aβ28 and species detected by LC-MS (Table S2) [5, 7]: 7%
Remaining amount of Aβ28 and species detected by LC-MS (Table S2) [5, 8]: 7%
Remaining amount of Aβ28 and species detected by LC-MS (Table S2) [5, 9]: 10%
Remaining amount of Aβ28 and species detected by LC-MS (Table S2) ([5]; Aβ28 500 µM alone, 14 days): 5%

Compound: DAEFRHDSGYEVHHQKLVF.F [hydrolytic fragment 1-19 of Aβ28]
Remaining amount of Aβ28 and species detected by LC-MS (Table S2) [5, 6]: 1%
Remaining amount of Aβ28 and species detected by LC-MS (Table S2) [5, 7]: 1%
Remaining amount of Aβ28 and species detected by LC-MS (Table S2) [5, 8]: 7%
Remaining amount of Aβ28 and species detected by LC-MS (Table S2) [5, 9]: 6%

Compound: DAEFRHDSGYEVHHQKLVFFAE.D [hydrolytic fragment 1-22 of Aβ28]
Remaining amount of Aβ28 and species detected by LC-MS (Table S2) [5, 6]: 3%
Remaining amount of Aβ28 and species detected by LC-MS (Table S2) [5, 7]: 5%
Remaining amount of Aβ28 and species detected by LC-MS (Table S2) [5, 8]: 9%
Remaining amount of Aβ28 and species detected by LC-MS (Table S2) [5, 9]: 7%

Compound: E.FRHDSGYEVHHQ.K [hydrolytic fragment 4-15 of Aβ28]
Remaining amount of Aβ28 and species detected by LC-MS (Table S2) ([5]; Aβ28 500 µM alone, 14 days): 2%

Compound: H-MDVFMKGLSKAKEGV-NH2
amount (%) of intact peptide after hydrolysis: > 90%

Compound: K.LVFFAEDVGSNK [hydrolytic fragment 17-28 of Aβ28]
Remaining amount of Aβ28 and species detected by LC-MS (Table S2) [5, 6]: 1%
Remaining amount of Aβ28 and species detected by LC-MS (Table S2) [5, 7]: 1%
Remaining amount of Aβ28 and species detected by LC-MS (Table S2) [5, 8]: 5%
Remaining amount of Aβ28 and species detected by LC-MS (Table S2) [5, 9]: 4%
Remaining amount of Aβ28 and species detected by LC-MS (Table S2) ([5]; Aβ28 500 µM alone, 14 days): 22%

Compound: Q.KLVFFAEDVGSNK [hydrolytic fragment 16-28 of Aβ28]
Remaining amount of Aβ28 and species detected by LC-MS (Table S2) [5, 8]: 10%
Remaining amount of Aβ28 and species detected by LC-MS (Table S2) [5, 9]: 13%
Remaining amount of Aβ28 and species detected by LC-MS (Table S2) ([5]; Aβ28 500 µM alone, 14 days): 16%

Compound: ^1MDVFMKGLSKAKEGV^15-NH2
cleaved bond [2]: K6-G7, 14 days; also recorded: F4-M5, 14 days; also recorded: L8-S9, 14 days
cleaved bond [3]: K6-G7, 14 days; also recorded: F4-M5, 14 days; also recorded: L8-S9, 14 days
cleaved bond [4]: K12-E13, 14 days; also recorded: K6-G7, 14 days; also recorded: F4-M5, 14 days; also recorded: L8-S9, 14 days

Compound: ^256VKSKIGSTENLKHQPGGG^273-NH2
cleaved bond [2]: G261-S262, 14 days; also recorded: N265-L266, 14 days
cleaved bond [3]: K259-I260, 14 days; also recorded: I260-G261, 14 days; also recorded: E264-N265, 14 days; also recorded: K267-H268, 14 days
cleaved bond [4]: N265-L266, 14 days; also recorded: S258-K259, 14 days; also recorded: Q269-P270, 14 days
